This experiment deals with P388 leukemia ip, CD2F1 mice, survival T/C. Nature of the experiment: NCI In Vivo Anticancer Drug Screen. Data for tumor model P388 Leukemia (intraperitoneal) in CD2F1 (CDF1) mice. The settings on record: endpoint: median survival time, higher = longer survival. In a few lines: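 Mice carrying the transplanted tumor received test compound or vehicle. Survival was recorded in each group, and the value is the treated-group measurement divided by that of the vehicle-treated control group.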

Where “and” joins values, the source holds several entries; their conditions need not be identical. Equal values may be shown once. Inconclusive results and toxic doses are left out. Square brackets hold non-standard residues; d marks the D form. Peptide text beside a SMILES is read from it. Ac5c = NC1(C(=O)O)CCCC1

On to `CCC1(O)CC(OC2CC(O)C(O)C(C)O2)c2c(O)c3c(c(O)c2C1C(=O)OC)C(=O)c1cccc(O)c1C3=O` (configuration not stated), for which the T/C (dose: 1.56 mg/kg/injection, schedule: Q04DX003 (ip), vehicle: water) is 104 % of control; the T/C (dose: 3.13 mg/kg/injection, schedule: Q04DX003 (ip), vehicle: water) was 103 % of control; the T/C (dose: 6.25 mg/kg/injection, schedule: Q04DX003 (ip), vehicle: water) is 103 % of control; the T/C (dose: 12.5 mg/kg/injection, schedule: Q04DX003 (ip), vehicle: water) is 109 % of control; the T/C (dose: 25.0 mg/kg/injection, schedule: Q04DX003 (ip), vehicle: water) was 109 % of control; the T/C (dose: 50.0 mg/kg/injection, schedule: Q04DX003 (ip), vehicle: water) was 104 % of control. Moreover, the T/C (dose: 100.0 mg/kg/injection, schedule: Q04DX003 (ip), vehicle: water) was 119 % of control and the T/C (dose: 200.0 mg/kg/injection, schedule: Q04DX003 (ip), vehicle: water) was 109 % of control.

On to `CCC[CH2][Sn]([CH2]CCC)([S]CC(=O)OCc1ccccc1)[S]CC(=O)OCc1ccccc1`, for which the T/C by setting is: (dose: 12.5 mg/kg/injection, schedule: Q01DX001 (ip), vehicle: Klucel (hydroxypropylcellulose) (HPC)) 108 % of control; (dose: 25.0 mg/kg/injection, schedule: Q01DX001 (ip), vehicle: Klucel (hydroxypropylcellulose) (HPC)) 116 % of control; (dose: 50.0 mg/kg/injection, schedule: Q01DX001 (ip), vehicle: Klucel (hydroxypropylcellulose) (HPC)) 108 % of control.

For `CCC1c2ccccc2[C@H]2C(c3ccccc3)=NN(c3ccccc3)[C@H]2N1CC` (some centres not stated), the T/C (dose: 50.0 mg/kg/injection, schedule: Q01DX005 (ip), vehicle: saline with Tween-80) is 100 % of control; the T/C (dose: 100.0 mg/kg/injection, schedule: Q01DX005 (ip), vehicle: saline with Tween-80) is 92 % of control; the T/C (dose: 200.0 mg/kg/injection, schedule: Q01DX005 (ip), vehicle: saline with Tween-80) was 90 % of control.

Turning to `S=c1nn[nH]n1-c1ccccc1.[Cd]`, the T/C is 98 % of control (dose: 3.13 mg/kg/injection, schedule: Q01DX009 (ip), vehicle: saline with Tween-80) and 94 % of control (dose: 6.25 mg/kg/injection, schedule: Q01DX009 (ip), vehicle: saline with Tween-80).

Take `COC(=O)/N=C1\C(=O)C=CC(O)=C1C(N)=O`: the T/C was 90 % of control (dose: 6.25 mg/kg/injection, schedule: Q01DX005 (ip), vehicle: saline with Tween-80); 94 % of control (dose: 12.5 mg/kg/injection, schedule: Q01DX005 (ip), vehicle: saline with Tween-80); 92 % of control (dose: 25.0 mg/kg/injection, schedule: Q01DX005 (ip), vehicle: saline with Tween-80).

In the case of `NCC(=O)NCC(=O)NC1(C(=O)O)CCCC1` (H-Gly-Gly-[Ac5c]-OH), the T/C is 102 % of control and 103 % of control (dose: 50.0 mg/kg/injection, schedule: Q01DX005 (ip), vehicle: saline); 110 % of control and 113 % of control (dose: 100.0 mg/kg/injection, schedule: Q01DX005 (ip), vehicle: saline); 110 % of control (dose: 200.0 mg/kg/injection, schedule: Q01DX005 (ip), vehicle: saline); 116 % of control and 87 % of control (dose: 400.0 mg/kg/injection, schedule: Q01DX005 (ip), vehicle: saline).

Regarding `O=C1c2ccccc2C(=O)C1c1cc(Cl)c(O)c(Cl)c1`, the T/C (dose: 50.0 mg/kg/injection, schedule: Q04DX002 (ip), vehicle: saline) is 100 % of control; the T/C (dose: 50.0 mg/kg/injection, schedule: Q04DX002 (ip), vehicle: suspension in saline) was 99 % of control; the T/C (dose: 100.0 mg/kg/injection, schedule: Q04DX002 (ip), vehicle: saline) is 117 % of control and 94 % of control; the T/C (dose: 100.0 mg/kg/injection, schedule: Q04DX002 (ip), vehicle: suspension in saline) is 98 % of control; the T/C (dose: 200.0 mg/kg/injection, schedule: Q04DX002 (ip), vehicle: saline) is 101 % of control and 117 % of control; the T/C (dose: 200.0 mg/kg/injection, schedule: Q04DX002 (ip), vehicle: suspension in saline) was 100 % of control. Further, the T/C runs as follows: (dose: 400.0 mg/kg/injection, schedule: Q04DX002 (ip), vehicle: saline) 96 % of control; (dose: 400.0 mg/kg/injection, schedule: Q04DX002 (ip), vehicle: suspension in saline) 100 % of control.

With `COc1nc2c(=O)[nH]cnc2n1C1OC(CO)C(O)C1O` (configuration not stated), the T/C is, setting by setting: (dose: 60.0 mg/kg/injection, schedule: Q01DX005 (ip), vehicle: saline) 104 % of control; (dose: 120.0 mg/kg/injection, schedule: Q01DX005 (ip), vehicle: saline) 97 % of control; (dose: 240.0 mg/kg/injection, schedule: Q01DX005 (ip), vehicle: saline) 98 % of control.

With `C=CC[P+](Cc1ccccc1)(c1ccccc1)c1ccccc1`, the T/C runs as follows: (dose: 0.78 mg/kg/injection, schedule: Q01DX009 (ip), vehicle: saline) 107 % of control; (dose: 1.56 mg/kg/injection, schedule: Q01DX009 (ip), vehicle: saline) 103 % of control; (dose: 3.13 mg/kg/injection, schedule: Q01DX009 (ip), vehicle: saline) 96 % of control.

Take `COc1ccc(-n2c(C)c(COC(C)=O)c(COC(C)=O)c2C)cc1`: for the setting “dose: 12.5 mg/kg/injection, schedule: Q01DX009 (ip), vehicle: saline”, the T/C is 157 % of control and 163 % of control.

As to `CC(C)(C)c1cc(C#CC#Cc2cc(C(C)(C)C)cc(C(C)(C)C)c2)cc(C(C)(C)C)c1`, the T/C is 86 % of control (dose: 25.0 mg/kg/injection, schedule: Q01DX005 (ip), vehicle: Klucel (hydroxypropylcellulose) (HPC)) and 86 % of control (dose: 50.0 mg/kg/injection, schedule: Q01DX005 (ip), vehicle: Klucel (hydroxypropylcellulose) (HPC)).

As to `COC(=O)c1cn[nH]c1CC#N`, the T/C (dose: 100.0 mg/kg/injection, schedule: Q04DX002 (ip), vehicle: saline with Tween-80) was 92 % of control and the T/C (dose: 200.0 mg/kg/injection, schedule: Q04DX002 (ip), vehicle: saline with Tween-80) is 100 % of control.

For `Cc1c2c(c(C)c3c1C(=O)c1cc4c(cc1C3=O)OCO4)OCO2`, the T/C (dose: 60.0 mg/kg/injection, schedule: Q01DX005 (ip), vehicle: saline with Tween-80) is 92 % of control; the T/C (dose: 120.0 mg/kg/injection, schedule: Q01DX005 (ip), vehicle: saline with Tween-80) is 99 % of control; the T/C (dose: 240.0 mg/kg/injection, schedule: Q01DX005 (ip), vehicle: saline with Tween-80) was 102 % of control.

`CC(=O)Oc1ccc(OC(C)=O)c2c1CC1OC1C2` (configuration not stated): the T/C reads like this: (dose: 3.13 mg/kg/injection, schedule: Q01DX009 (ip), vehicle: water) 100 % of control; (dose: 6.25 mg/kg/injection, schedule: Q01DX009 (ip), vehicle: water) 98 % of control; (dose: 12.5 mg/kg/injection, schedule: Q01DX009 (ip), vehicle: water) 100 % of control; (dose: 25.0 mg/kg/injection, schedule: Q01DX009 (ip), vehicle: water) 90 % of control; (dose: 50.0 mg/kg/injection, schedule: Q01DX009 (ip), vehicle: water) 100 % of control; (dose: 100.0 mg/kg/injection, schedule: Q01DX009 (ip), vehicle: distilled water + Tween-80) 111 % of control. Also, the T/C is 111 % of control (dose: 200.0 mg/kg/injection, schedule: Q01DX009 (ip), vehicle: distilled water + Tween-80) and 100 % of control (dose: 400.0 mg/kg/injection, schedule: Q01DX009 (ip), vehicle: distilled water + Tween-80).

Regarding `O=C1c2ccccc2C(=O)N1CCC(=O)n1ccnc1`, the T/C was 104 % of control (dose: 17.5 mg/kg/injection, schedule: Q01DX005 (ip), vehicle: Klucel (hydroxypropylcellulose) (HPC)); 97 % of control (dose: 35.0 mg/kg/injection, schedule: Q01DX005 (ip), vehicle: Klucel (hydroxypropylcellulose) (HPC)); 99 % of control (dose: 70.0 mg/kg/injection, schedule: Q01DX005 (ip), vehicle: Klucel (hydroxypropylcellulose) (HPC)).

As for `CC1(N2CCCCC2)C(=O)NC(=O)N(C2CCCCC2)C1=O` (configuration not stated), the T/C was 88 % of control (dose: 60.0 mg/kg/injection, schedule: Q01DX005 (ip), vehicle: Klucel (hydroxypropylcellulose) (HPC)); 95 % of control (dose: 120.0 mg/kg/injection, schedule: Q01DX005 (ip), vehicle: Klucel (hydroxypropylcellulose) (HPC)); 89 % of control (dose: 240.0 mg/kg/injection, schedule: Q01DX005 (ip), vehicle: Klucel (hydroxypropylcellulose) (HPC)).

With `CCOC(=O)/C(C#N)=C\c1c(OC(C)=O)cn2c(C)cccc12`, the T/C (dose: 100.0 mg/kg/injection, schedule: Q01DX001 (ip), vehicle: saline with Tween-80) was 104 % of control; the T/C (dose: 200.0 mg/kg/injection, schedule: Q01DX001 (ip), vehicle: saline with Tween-80) was 98 % of control; the T/C (dose: 400.0 mg/kg/injection, schedule: Q01DX001 (ip), vehicle: saline with Tween-80) is 98 % of control.

(Values after PubChem BioAssay AID330 (DTP/NCI, 2004).)
